Like-named read-outs stand apart in the source and are kept apart here.
What was measured:
His6-hTGase 2 = molecular target: T1, His6-hTGase 2 (Homo sapiens, UniProt P21980); test: fluorimetric activity assay (substrate Z-Glu(HMC)-Gly-OH) for kinact/KI; format: biochemical; conditions: mean (SEM) of two to four experiments
T1 construct: purchased Zedira (Darmstadt, Germany) T022, lot 0716a
T1 sequence (P21980 1-687): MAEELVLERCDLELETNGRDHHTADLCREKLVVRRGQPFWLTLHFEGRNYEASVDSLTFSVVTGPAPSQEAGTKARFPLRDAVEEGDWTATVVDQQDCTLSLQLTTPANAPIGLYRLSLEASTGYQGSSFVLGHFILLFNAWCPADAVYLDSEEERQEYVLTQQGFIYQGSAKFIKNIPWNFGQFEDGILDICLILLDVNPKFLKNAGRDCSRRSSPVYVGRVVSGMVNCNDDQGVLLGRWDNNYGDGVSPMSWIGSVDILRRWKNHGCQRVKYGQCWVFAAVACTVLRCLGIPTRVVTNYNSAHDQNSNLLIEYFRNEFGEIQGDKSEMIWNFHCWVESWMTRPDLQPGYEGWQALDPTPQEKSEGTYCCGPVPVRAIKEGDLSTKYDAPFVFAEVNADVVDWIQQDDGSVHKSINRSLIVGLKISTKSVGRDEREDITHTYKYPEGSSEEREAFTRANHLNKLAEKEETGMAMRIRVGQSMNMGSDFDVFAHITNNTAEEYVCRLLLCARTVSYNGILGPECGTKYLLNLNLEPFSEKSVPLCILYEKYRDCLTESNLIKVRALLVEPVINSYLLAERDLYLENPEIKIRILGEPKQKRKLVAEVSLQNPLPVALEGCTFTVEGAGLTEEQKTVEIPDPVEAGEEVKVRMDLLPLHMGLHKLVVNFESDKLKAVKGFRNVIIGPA

self-produced hTGase 2 = molecular target: T2, self-produced hTGase 2 (Homo sapiens, UniProt P21980); test: native GTP-PAGE with increasing concentrations of inhibitor, band quantification; format: biochemical; conditions: 8.23 µM hTGase 2; for IC50: 50 µM GTP in gel and buffer
T2 construct: thrombin cleavage site (N); made in house; host or cells: E. coli BL21(DE3)
T2 sequence (P21980 1-687): T1 sequence (P21980 1-687)
Procedure: Figure 8 Effect of increasing concentrations of inhibitor 2 on the activity and the conformation of hTGase 2. Native GTP-PAGE was performed on 7% separating gels. Both the gel and the running buffer contained 50 µM GTP without (A) and with an additional 500 µM MgCl2 (B). Samples of 8.23 µM self-produced hTGase 2 were first incubated for 30 min at 20 °C in 100 mM MOPS pH 8.0, 100 mM NaCl, 2.12% (v/v) DMSO, 5.33% (v/v) glycerol with CaCl2, GTP, MgCl2, and different concentrations of inhibitor 2, as indicated. GTP and/or MgCl2 were added as indicated, and all samples were incubated for 60 min at 20 °C. After adding native loading buffer, 6 µL of each sample containing 3 µg of hTGase 2 was loaded onto the gel. After electrophoretic separation, gels were stained with Coomassie Brilliant Blue G250, scanned, and the protein bands were quantified (Figure S7 in Supplementary Materials). Four species of hTGase 2, i.e., oligomers and slow-, intermediate-, and fast-migrating species, were identified, with slow- and intermediate-migrating species combined for the quantitative analysis. (C) Percentage of the signals of the three species per lane and (D) percentage of the oligomers’ signal plotted versus the concentration of inhibitor 2. (E) Signals of the slow-/intermediate-migrating and fast-migrating species were added and set to one. (F) Portion of the fast-migrating species in (E) was plotted against the concentration of inhibitor 2. The IC50 values in (D,F) were calculated by non-linear regression according to Equation (S29) in Supplementary Materials.
Sodium dodecyl sulfate-PAGE (SDS-PAGE) and native PAGE were performed on 4% stacking and 7% separating gels using Laemmli buffers (60 min with 120 V, 300 mA and 30 W at room temperature) and the same buffers without SDS (80 min with 120 V, 50 mA and 30 W at 4 °C), respectively. Buffers and gels were as follows: (i) for SDS-PAGE: stacking gel: 0.125 M TRIS pH 6.8, 4% (v/v) acrylamide-bisacrylamide, 0.1% (m/v) SDS; separating gel: 0.375 M TRIS pH 8.8, 7% (v/v) acrylamide-bisacrylamide, 0.1% (m/v) SDS; running buffer: 0.025 M TRIS pH 8.3, 0.2 M glycine, 0.1% (m/v) SDS; (ii) for native PAGE: the same buffers and gels were used without the addition of SDS. Native PAGE experiments, where 50 µM of GTP was added to the stacking and separating gels and the running buffer, are specified as “native GTP-PAGE” (with italic letters). In contrast, experiments without GTP are denoted as “native PAGE” (with italics letters). The term “native (GTP-)PAGE” (with italics letters) is used when we refer to both methods. Further conditions of the SDS-PAGE and native (GTP-)PAGE are detailed in the legends of Figure 7 and Figure 8 and Figures S4–S6 (Supplementary Materials). For the loading of samples onto the stacking gel, three parts of the sample solution were mixed with one part of the respective loading buffer. In the case of SDS-PAGE, SDS loading buffer (0.24 M TRIS, 40% (v/v) glycerol, 8% (m/v) SDS, 2% (v/v) 2-mercaptoethanol, and 0.08% (m/v) bromphenol blue) were used, followed by the denaturation of the mixture for 5 min at 60 °C. […] Afterward, the gels were scanned using a LI-COR Odyssey Fc Imager (700 channel) and analyzed using Image Studio software version 5.2.5. Detected bands were quantified based on the general procedure published by Wagstaff et al. and as detailed in legends to Figures S5 and S6. […]

C=CC(=O)NCCCC[C@H](NC(=O)Cc1ccccc1I)C(=O)N1CCN(c2ccc([N+](=O)[O-])nc2)CC1 [Compound 2, N^α-(2-Iodophenylacetyl)-N^ε-acryloyl-L-lysin-4-(2-nitropyridin-5-yl)piperazide]
kinact/KI (His6-hTGase 2): 8340 M⁻¹ s⁻¹
IC50 (self-produced hTGase 2; Gel A (w/o Mg^2+), read-out: IC50, percentage of the oligomers' signal (Figure 8D)): 5.58 µM
IC50 (self-produced hTGase 2; Gel A (w/o Mg^2+), read-out: IC50, portion of the fast-migrating (closed) species of monomeric hTGase 2 (Figure 8F)): 5.28 µM
IC50 (self-produced hTGase 2; Gel B (with Mg^2+, 500 µM MgCl2), read-out: IC50, percentage of the oligomers' signal (Figure 8D)): 5.71 µM
IC50 (self-produced hTGase 2; Gel B (with Mg^2+, 500 µM MgCl2), read-out: IC50, portion of the fast-migrating (closed) species of monomeric hTGase 2 (Figure 8F)): 5.68 µM
ratio of the IC50 and the molar enzyme concentration (self-produced hTGase 2; native GTP-PAGE, calculated from values in Figure 8D,F): 0.64–0.69
